Assay results as given in patent US20170144969A1, “ANT[…], METHOD FOR PRODUCTION AND USES THEREOF” (priority 2014, published 2017).
Values joined by “and” are separate entries in the source; they are usually repeats but may differ in a detail not shown here. Equal values may be shown once. Read-outs that look alike come from different tables or passages of the source.

How the values were obtained:
E. coli = test: Resistance study, serial passage at MIC/2; type: cell-based; conditions: 30 passages
S. aureus biofilms = test: Bacterial biofilm disruption (pre-formed biofilm); type: cell-based; conditions: for reduction of cell viability in pre-existing biofilms: 24 h
S. aureus = test: Resistance study, serial passage at MIC/2; type: cell-based; conditions: 20 passages
Ebola virus [1] = type: cell-based
[2] = system: Ebola virus (strain ME718); type: cell-based
Ebola virus [3] = type: cell-based; remark: listed apart in the source
[4] = system: RAW (macrophage) cell line; test: Cytotoxicity, MTT assay
[5] = system: Ebola virus (strain ME718); type: cell-based; remark: listed apart in the source
E. coli (MTCC 443) = test: Minimum Inhibitory Concentration, micro-dilution broth; type: cell-based; conditions: 24 h, 37° C.
Ebola virus [6] = type: cell-based; remark: listed apart in the source
[7] = system: vancomycin resistant Enterococcus faecium (VRE) (ATCC 51559); test: Minimum Inhibitory Concentration, micro-dilution broth; type: cell-based; conditions: 24 h, 37° C.
S. aureus (MTCC 737) = test: as above; type: cell-based, Staphylococcus aureus; conditions: 24 h, 37° C.
HeLa cell line = test: Cytotoxicity, MTT assay
[8] = system: stationary-phase S. aureus; test: Time-kill kinetics against stationary phase bacteria; type: cell-based; conditions: within 1 h of exposure, 50 μg/mL
[9] = system: Klebsiella pneumoniae (ATCC 700603); test: Minimum Inhibitory Concentration, micro-dilution broth; type: cell-based; conditions: 24 h, 37° C.
MRSA (ATCC 33591) = test: as above; type: cell-based, methicillin-resistant S. aureus; conditions: 24 h, 37° C.
[10] = Antibacterial efficacy (MIC) after incubation in 50% human plasma; conditions: for MIC / activity: up to 24 h incubation in 50% human plasma
human Red Blood Cells = test: Haemolytic activity; conditions: Table 3; human RBCs, 1 h at 37° C.
[11] = system: Enterococcus faecium (ATCC 19634); test: Minimum Inhibitory Concentration, micro-dilution broth; type: cell-based

colistin [reference compound]
fold increase in the MIC (E. coli): ~250 fold

CCn1cc(C(=O)O)c(=O)c2cc(F)c(N3CCNCC3)cc21 [norfloxacin, reference compound]
reduction of cell viability in pre-existing biofilms (S. aureus biofilms; 64×MIC): none of the antibiotics showed significant reduction
fold increase in the MIC (S. aureus): around 800 fold

CCCCCCCCCCCCCC(=O)N(CCCNC(=O)[C@H](N)CCCCN)CCCNC(=O)[C@H](N)CCCCN.O=C(O)C(F)(F)F.O=C(O)C(F)(F)F [Compound 16, N,N-bis-[{3-(^DLys)amino}propyl]tetradecanamide bis(trifluoroacetate)]
Ct value, replicate wells 1-3 (Ebola virus [1]): 25.96 and 27.13 and 26.42 and 26.03 and 24.81 and 25.73 and 26.99 and 26.76 and 26.30 and 26.31 and 26.49 and 26.53 and 26.04 and 26.63 and 16.70 and 18.76 and 16.93 and 24.42 and 24.33 and 24.32 and 21.29 and 20.72 and 23.10 and 19.95 and 20.87 and 20.22 and 17.82 and 20.49 and 19.45
amount of viral genome present (Ebola virus [1]): reduced the amount of viral genome present
Ct value Ave [2]: 33.65 and 35.29
Drug - no drug Ct change [2]: 3.76 and 5.40
rank of Ct value among 20 compounds (Ebola virus [3]): one of the top two Ct values
EC50 (50% cells viability) ([4]; MTT): > 70 µg/mL
toxicity ([4]; at its MIC): did not show any toxicity
Ct value Ave [5]: 34.3 and 32.9
Drug - no drug Ct change [5]: 7.02 and 5.64
MIC (E. coli (MTCC 443)): 5.4 µM
rank of Ct value among 20 compounds (Ebola virus [6]): one of the top two Ct values
reduction of cell viability in pre-existing biofilms (S. aureus biofilms; 4×MIC): 5 Log (CFU/mL)
biofilm eradication, confocal microscopy (S. aureus biofilms; 10×MIC): significant biofilm eradication
pre-formed biofilm mass, crystal violet staining (S. aureus biofilms; 10×MIC): enormous reduction in pre-formed biofilm mass
reduction of cell viability in pre-existing biofilms (S. aureus biofilms; 10×MIC): 6 Log (CFU/mL)
reduction of cell viability in pre-existing biofilms (S. aureus biofilms; at its MIC concentration): more than 4 Log CFU/mL
MIC [7]: 2.8 µM
fold increase in the MIC (S. aureus): no change in the MIC
MIC (S. aureus (MTCC 737)): 5.7 µM
fold increase in the MIC (E. coli): no change in the MIC
EC50 (50% cells viability) (HeLa cell line; MTT): > 70 µg/mL
toxicity (HeLa cell line; at its MIC): did not show any toxicity
reductions in cell viability [8]: more than 3 Log CFU/mL

CCCCCCCCCCCC(=O)N(CCCNC(=O)[C@@H](N)Cc1ccccc1)CCCNC(=O)[C@@H](N)Cc1ccccc1.O=C(O)C(F)(F)F.O=C(O)C(F)(F)F [Compound 2, N,N-bis-[{3-(^LPhe)amino}propyl]dodecanamide bis(trifluoroacetate)]
Minimum Inhibitory Concentration K. pneumonie [9]: 9.7 µM
Minimum Inhibitory Concentration MRSA (MRSA (ATCC 33591)): 4 µM
MIC ([10]; after 2 h incubation with 50% plasma): 10.7 µM
MIC ([10]; after 4 h incubation with 50% plasma): 22 µM
MIC ([10]; before incubation with 50% human plasma): 5.4 µM
MIC / activity [10]: remained same
MIC (E. coli (MTCC 443)): 12 µM
HC50 (human Red Blood Cells): 205
MIC [7]: 2.7 µM

CCCCCCCCCCCC(=O)N(CCCNC(=O)[C@H](N)Cc1ccccc1)CCCNC(=O)[C@H](N)Cc1ccccc1 [Compound 6, N,N-bis-[{3-(^DPhe)amino}propyl]dodecanamide bis(trifluoroacetate)]
stability in plasma ([10]; human plasma): stable in plasma
MIC / activity [10]: did not show any loss of activity
MIC (E. coli (MTCC 443); Escherichia coli, MTCC443): 12 µM
MIC ([11]; 24 h, 37° C., read-out: Minimum Inhibitory Concentration E. faceium): 3.3 µM
MIC ([11]; Enterococcus faecium, ATCC19634, 24 h, read-out: Minimum Inhibitory Concentration E. faceium, 24 h, 37° C.): 2 to 5 µM
MIC [7]: 2.9 µM
